Test results taken from patent US20240270762A1, “PENICILLIN-BINDING PROTEIN INHIBITORS” (priority 2021, published 2024).
In brackets after ≈: the same amount, converted by molar mass.

How the values were obtained:
Assay in all cases: Liquid broth MIC in Fastidious broth
[1] = test system: N. gonorrhoeae ATCC 49226; conditions: Neisseria gonorrhoeae, ATCC49226, read-out: Minimum Inhibitory Concentration, ATCC 49226
[2] = test system: N. gonorrhoeae FA1090; conditions: Neisseria gonorrhoeae, FA1090, read-out: Minimum Inhibitory Concentration, FA 1090
[3] = test system: N. gonorrhoeae MS11; conditions: Neisseria gonorrhoeae, MS11, read-out: Minimum Inhibitory Concentration, MS11
[4] = test system: N. gonorrhoeae WHO L; conditions: Neisseria gonorrhoeae, read-out: Minimum Inhibitory Concentration, WHO L
[5] = test system: N. gonorrhoeae WHO M; conditions: Neisseria gonorrhoeae, read-out: Minimum Inhibitory Concentration, WHO M
[6] = test system: N. gonorrhoeae WHO K; conditions: Neisseria gonorrhoeae, read-out: Minimum Inhibitory Concentration, WHO K
[7] = test system: N. gonorrhoeae WHO X; conditions: Neisseria gonorrhoeae, read-out: Minimum Inhibitory Concentration, WHO X
[8] = test system: N. gonorrhoeae WHO Z; conditions: Neisseria gonorrhoeae, read-out: Minimum Inhibitory Concentration, WHO Z
[9] = test system: N. gonorrhoeae WHO Q; conditions: Neisseria gonorrhoeae, read-out: Minimum Inhibitory Concentration, WHO Q
[10] = test system: N. gonorrhoeae CDC-0197; conditions: Neisseria gonorrhoeae, CDC0197, read-out: Minimum Inhibitory Concentration, CDC-0197

| Compound | MIC [1] [µg/mL] | MIC [2] [µg/mL] | MIC [3] [µg/mL] | MIC [4] [µg/mL] | MIC [5] [µg/mL] | MIC [6] [µg/mL] | MIC [7] [µg/mL] | MIC [8] [µg/mL] | MIC [9] [µg/mL] | MIC [10] [µg/mL] |
| --- | --- | --- | --- | --- | --- | --- | --- | --- | --- | --- |
| O=C(NCCCN1CCN(C(=O)NC(C(=O)N[C@H]2Cc3ccc(F)c(C(=O)O)c3OB2O)c2cc(F)c(O)c(O)c2Cl)C1=O)Nc1ccncc1 (stereo partly drawn) [Example 285, (3R)-3-(2-(2-chloro-5-fluoro-3,4-dihydroxyphenyl)-2-(2-oxo-3-(3-(3-(pyridin-4-yl)ureido)propyl)imidazolidine-1-carboxamido)acetamido)-7-fluoro-2-hydroxy-3,4-dihydro-2H-benzo[e][1,2]oxaborinine-8-carboxylic acid] | > 64 | 4 to 8 (≈ 5.47 to 10.9 µM) | > 64 | > 64 | > 64 | > 64 | > 64 | > 64 | > 64 | > 64 |
| Cc1cc(C(=O)NCCCN2CCN(C(=O)NC(C(=O)N[C@H]3Cc4ccc(F)c(C(=O)O)c4OB3O)c3cc(F)c(O)c(O)c3Cl)C(=O)C2=O)c(F)cn1 (stereo partly drawn) [Example 301, (3R)-3-(2-(2-chloro-5-fluoro-3,4-dihydroxyphenyl)-2-(4-(3-(5-fluoro-2-methylisonicotinamido)propyl)-2,3-dioxopiperazine-1-carboxamido)acetamido)-7-fluoro-2-hydroxy-3,4-dihydro-2H-benzo[e][1,2]oxaborinine-8-carboxylic acid] | 16 to 32 (≈ 20.6 to 41.2 µM) | 4 to 8 (≈ 5.15 to 10.3 µM) | 16 to 32 (≈ 20.6 to 41.2 µM) | > 64 | 16 to 32 (≈ 20.6 to 41.2 µM) | > 64 | > 64 | > 64 | > 64 | > 64 |
| O=C(NCCCN1CCN(C(=O)N[C@H](C(=O)N[C@H]2Cc3ccc(F)c(C(=O)O)c3OB2O)c2cc(F)c(O)c(O)c2Cl)C(=O)C1=O)c1cccc(O)c1Cl [Example 302, (R)-3-((S)-2-(4-(3-(2-chloro-3-hydroxybenzamido)propyl)-2,3-dioxopiperazine-1-carboxamido)-2-(2-chloro-5-fluoro-3,4-dihydroxyphenyl)acetamido)-7-fluoro-2-hydroxy-3,4-dihydro-2H-benzo[e][1,2]oxaborinine-8-carboxylic acid] | > 64 | > 64 | > 64 | > 64 | > 64 | > 64 | > 64 | > 64 | > 64 | > 64 |
| O=C(NCCCN1CCN(C(=O)N[C@H](C(=O)N[C@H]2Cc3ccc(F)c(C(=O)O)c3OB2O)c2cc(F)c(O)c(O)c2Cl)C(=O)C1=O)c1ccnc(F)c1F [Example 299, (R)-3-((S)-2-(2-chloro-5-fluoro-3,4-dihydroxyphenyl)-2-(4-(3-(2,3-difluoroisonicotinamido)propyl)-2,3-dioxopiperazine-1-carboxamido)acetamido)-7-fluoro-2-hydroxy-3,4-dihydro-2H-benzo[e][1,2]oxaborinine-8-carboxylic acid] | > 64 | 16 to 32 (≈ 20.5 to 41 µM) | > 64 | > 64 | > 64 | > 64 | > 64 | > 64 | > 64 | > 64 |
| O=C(NCCCN1CCN(C(=O)N[C@@H](C(=O)N[C@H]2Cc3ccc(F)c(C(=O)O)c3OB2O)c2cc(F)c(O)c(O)c2Cl)C(=O)C1=O)c1ccnc(F)c1F [Example 300, (R)-3-((R)-2-(2-chloro-5-fluoro-3,4-dihydroxyphenyl)-2-(4-(3-(2,3-difluoroisonicotinamido)propyl)-2,3-dioxopiperazine-1-carboxamido)acetamido)-7-fluoro-2-hydroxy-3,4-dihydro-2H-benzo[e][1,2]oxaborinine-8-carboxylic acid] | 16 to 32 (≈ 20.5 to 41 µM) | 4 to 8 (≈ 5.12 to 10.2 µM) | 16 to 32 (≈ 20.5 to 41 µM) | > 64 | 16 to 32 (≈ 20.5 to 41 µM) | > 64 | > 64 | > 64 | > 64 | > 64 |
| O=C(NCCS(=O)(=O)N1CCN(C(=O)N[C@@H](C(=O)N[C@H]2Cc3ccc(F)c(C(=O)O)c3OB2O)c2cc(F)c(O)c(O)c2Cl)C1=O)c1ccc(O)cc1 [Example 287, (R)-3-((R)-2-(2-chloro-5-fluoro-3,4-dihydroxyphenyl)-2-(3-((2-(4-hydroxybenzamido)ethyl)sulfonyl)-2-oxoimidazolidine-1-carboxamido)acetamido)-7-fluoro-2-hydroxy-3,4-dihydro-2H-benzo[e][1,2]oxaborinine-8-carboxylic acid] | 4 to 8 (≈ 5.12 to 10.2 µM) | 1 to 2 (≈ 1.28 to 2.56 µM) | 4 to 8 (≈ 5.12 to 10.2 µM) | > 64 | 4 to 8 (≈ 5.12 to 10.2 µM) | 16 to 32 (≈ 20.5 to 40.9 µM) | > 64 | 4 to 8 (≈ 5.12 to 10.2 µM) | 4 to 8 (≈ 5.12 to 10.2 µM) | 16 to 32 (≈ 20.5 to 40.9 µM) |
| Cc1cc(C(=O)NCCCN2CCN(C(=O)N[C@@H](C(=O)N[C@H]3Cc4ccc(F)c(C(=O)O)c4OB3O)c3cc(F)c(O)c(O)c3Cl)C(=O)C2=O)ccn1 [Example 298, (R)-3-((R)-2-(2-chloro-5-fluoro-3,4-dihydroxyphenyl)-2-(4-(3-(2-methylisonicotinamido)propyl)-2,3-dioxopiperazine-1-carboxamido)acetamido)-7-fluoro-2-hydroxy-3,4-dihydro-2H-benzo[e][1,2]oxaborinine-8-carboxylic acid] | 16 to 32 (≈ 21.1 to 42.2 µM) | 1 to 2 (≈ 1.32 to 2.64 µM) | 16 to 32 (≈ 21.1 to 42.2 µM) | > 64 | 16 to 32 (≈ 21.1 to 42.2 µM) | > 64 | > 64 | > 64 | > 64 | > 64 |
| O=C(NCCCN1CCN(C(=O)NC(C(=O)N[C@H]2Cc3ccc(F)c(C(=O)O)c3OB2O)c2cc(F)c(O)c(O)c2Cl)C(=O)C1=O)c1ccc(O)cc1O (stereo partly drawn) [Example 307, (3R)-3-(2-(2-chloro-5-fluoro-3,4-dihydroxyphenyl)-2-(4-(3-(2,4-dihydroxybenzamido)propyl)-2,3-dioxopiperazine-1-carboxamido)acetamido)-7-fluoro-2-hydroxy-3,4-dihydro-2H-benzo[e][1,2]oxaborinine-8-carboxylic acid] | 16 to 32 (≈ 20.6 to 41.2 µM) | 1 to 2 (≈ 1.29 to 2.58 µM) | 16 to 32 (≈ 20.6 to 41.2 µM) | > 64 | 16 to 32 (≈ 20.6 to 41.2 µM) | > 64 | > 64 | > 64 | > 64 | > 64 |
| O=C(NCCN1CCN(C(=O)N[C@@H](C(=O)N[C@H]2Cc3ccc(F)c(C(=O)O)c3OB2O)c2cc(F)c(O)c(O)c2Cl)C1=O)Nc1ccc(O)cc1 [Example 279, (R)-3-((R)-2-(2-chloro-5-fluoro-3,4-dihydroxyphenyl)-2-(3-(2-(3-(4-hydroxyphenyl)ureido)ethyl)-2-oxoimidazolidine-1-carboxamido)acetamido)-7-fluoro-2-hydroxy-3,4-dihydro-2H-benzo[e][1,2]oxaborinine-8-carboxylic acid] | 4 to 8 (≈ 5.46 to 10.9 µM) | < 1 | 4 to 8 (≈ 5.46 to 10.9 µM) | 16 to 32 (≈ 21.8 to 43.7 µM) | 1 to 2 (≈ 1.36 to 2.73 µM) | 16 to 32 (≈ 21.8 to 43.7 µM) | > 64 | 4 to 8 (≈ 5.46 to 10.9 µM) | 16 to 32 (≈ 21.8 to 43.7 µM) | 4 to 8 (≈ 5.46 to 10.9 µM) |
| O=C(NCCCS(=O)(=O)N1CCN(C(=O)NC(C(=O)N[C@H]2Cc3ccc(F)c(C(=O)O)c3OB2O)c2cc(F)c(O)c(O)c2Cl)C1=O)Nc1cccc(O)c1 (stereo partly drawn) [Example 277, (3R)-3-(2-(2-chloro-5-fluoro-3,4-dihydroxyphenyl)-2-(3-((3-(3-(3-hydroxyphenyl)ureido)propyl)sulfonyl)-2-oxoimidazolidine-1-carboxamido)acetamido)-7-fluoro-2-hydroxy-3,4-dihydro-2H-benzo[e][1,2]oxaborinine-8-carboxylic acid] | 16 to 32 (≈ 19.7 to 39.5 µM) | 1 to 2 (≈ 1.23 to 2.47 µM) | 16 to 32 (≈ 19.7 to 39.5 µM) | > 64 | 16 to 32 (≈ 19.7 to 39.5 µM) | > 64 | > 64 | 16 to 32 (≈ 19.7 to 39.5 µM) | 16 to 32 (≈ 19.7 to 39.5 µM) | 16 to 32 (≈ 19.7 to 39.5 µM) |
| O=C(NCCCN1CCN(C(=O)N[C@H](C(=O)N[C@H]2Cc3ccc(F)c(C(=O)O)c3OB2O)c2cc(F)c(O)c(O)c2Cl)C1=O)Nc1ccc(O)cc1 [Example 283, (R)-3-((S)-2-(2-chloro-5-fluoro-3,4-dihydroxyphenyl)-2-(3-(3-(3-(4-hydroxyphenyl)ureido)propyl)-2-oxoimidazolidine-1-carboxamido)acetamido)-7-fluoro-2-hydroxy-3,4-dihydro-2H-benzo[e][1,2]oxaborinine-8-carboxylic acid] | > 64 | > 64 | > 64 | > 64 | > 64 | > 64 | > 64 | > 64 | > 64 | > 64 |
